These results are taken from article PMC11859181, “Alternaria alternata (Fr) Keissl Crude Extract Inhibits HIV Subtypes and Integrase Drug-Resistant Strains at Different Stages of HIV Replication” (Pharmaceuticals, 2025).

In brackets after ≈: the same amount, converted by molar mass. Read-outs that look alike come from different tables or passages of the source.

Series [1] relates to PC 60 (subtype D) HIV-1 virus. Nature of the series: microbe, parasite or virus in culture. As to conditions: Human immunodeficiency virus 1, TZM-bl. The series is classed as cell-based.
Series [2] relates to CM9 (subtype C) HIV-1 virus. Nature of the series: microbe, parasite or virus in culture. The series is classed as cell-based. As to conditions: Human immunodeficiency virus 1, TZM-bl.
A short description of series [3]: MTT cell viability and cytotoxicity assay. To be noted: human, TZM-bl cells. The series is classed as cell-based. As to the method: A. alternata crude extract cell cytotoxicity and viability were assessed by MTT (3-[4, 5-dimethylthiazol-2-yl]-2, 5-diphenyltetrazolium bromide) cell viability assay using the CYQUANT MTT cell proliferation kit (Thermo Fisher Scientific, Waltham, MA, USA). A 96-well culture plate was seeded with 15,000 TZM-bl cells/200 µL of DMEM per well and incubated at 37 °C with 5% CO2.). Following this, 10 µL of the drug control azidothymidine (NIH AIDS Research and Reference Reagent Programme) and the A. alternata crude extract were diluted five-fold, and control wells where neither the control drug AZT nor the crude extract was added were followed by incubation at 37 °C with 5% CO2 and 95% humidity for 48 h. Ten microlitres of 12 mM of MTT solution was added to each well and incubated for 4 h at 37 °C with 5% CO2 and 95% humidity. Then, 50 µL of 100% DMSO were added to each well and incubated for 10 min. The absorbance was then measured at a wavelength of 540 nm using the Victor Nivo microplate reader (PerkinElmer, Waltham, MA, USA). The percentage of cell viability was calculated using the formula below:%Cell viability = (Sample absorbance − media control)/(Mean media control absorbance) × 100
The drug control azidothymidine and A. alternata crude extract CC50 (50% cytotoxic concentration) were determined using GraphPad Prism software (v.5) by dose-response curve.

The test system of series [4] is MC 2297 (subtype A) HIV-1 virus. The experiment in a line: microbe, parasite or virus in culture. The series is classed as cell-based. To be noted: Human immunodeficiency virus 1, TZM-bl.
In series [5] the test system is PC 178 (subtype D) HIV-1 virus. The experiment in a line: microbe, parasite or virus in culture. The series is classed as cell-based. As to conditions: Human immunodeficiency virus 1, TZM-bl.
Series [6] relates to YU2 (subtype B) HIV-1 virus. The experiment in a line: microbe, parasite or virus in culture. The series is classed as cell-based. To be noted: Human immunodeficiency virus 1, TZM-bl.
For series [7], the system named is pNL4.3 (subtype B) HIV-1 virus. The experiment in a line: Luciferase-based antiviral assay, pNL4.3 (wild type). The series is classed as cell-based.
Series [8] has as its system CM7 (subtype C) HIV-1 virus. Nature of the series: microbe, parasite or virus in culture. The series is classed as cell-based. To be noted: Human immunodeficiency virus 1, TZM-bl.
In series [9] the test system is PC 148 (subtype A) HIV-1 virus. Nature of the series: microbe, parasite or virus in culture. The series is classed as cell-based. As to conditions: Human immunodeficiency virus 1, TZM-bl.
For series [10], the system named is integrase drug-resistant strain T66K. Nature of the series: microbe, parasite or virus in culture. The series is classed as cell-based, HIV-1. To be noted: for IC50: Human immunodeficiency virus 1, TZM-bl, read-out: IC50 (T66K); for inhibition at 300 µg/mL: Human immunodeficiency virus 1, read-out: inhibition of HIV replication; for fold change (FC) T66K: drug-resistant strain IC50/wild-type IC50.

Series [11] shares this test system. More on the design: method as in PMID 18625269. As to conditions: previously reported; cited from earlier work.
The test system of series [12] is integrase drug-resistant strain S230R. To be noted: previously reported; cited from earlier work.
Series [13] has the same test system. The experiment in a line: microbe, parasite or virus in culture. The series is classed as cell-based, HIV-1. As to conditions: for IC50: Human immunodeficiency virus 1, TZM-bl, read-out: IC50 (S230R); for inhibition at 300 µg/mL: Human immunodeficiency virus 1, read-out: inhibition of HIV replication; for fold change (FC) S230R: drug-resistant strain IC50/wild-type IC50.

Where [14] appears, read: Human immunodeficiency virus 1, read-out: IC50 (WT).

For the compound `Cc1cn([C@H]2C[C@H](N=[N+]=[N-])[C@@H](CO)O2)c(=O)[nH]c1=O` [Azidothymidine, azidothymidine], the IC50 in series [1] stood at 0.078 ± 0.005 µg/mL (≈ 0.292 µM); in series [2], 0.0924 ± 0.007 µg/mL (≈ 0.346 µM); in [4], 0.0138 ± 0.001 µg/mL (≈ 0.0518 µM); in series [5], 0.0813 ± 0.003 µg/mL (≈ 0.304 µM); in series [6], 0.0423 ± 0.004 µg/mL (≈ 0.158 µM); in [7] (Human immunodeficiency virus 1, TZM-bl), 0.0338 ± 0.004 µg/mL (≈ 0.126 µM). Moreover, the half-maximal inhibitory concentration (IC50) in [8] is 0.058 ± 0.009 µg/mL (≈ 0.217 µM); in [9] it was 0.0403 ± 0.002 µg/mL (≈ 0.151 µM). In series [3], this compound came in with a viability at 48 h greater than 80%. In addition, in series [3] (48 h, triplicate), the CC50 at 48 h was determined as 385 ± 6.29 µg/mL (≈ 1440 µM).

Consider `C[C@@H]1CCO[C@H]2Cn3cc(C(=O)NCc4ccc(F)cc4F)c(=O)c(O)c3C(=O)N12` [Dolutegravir, dolutegravir], for which, in [10], the IC50 is 0.327 ± 0.031 µg/mL (≈ 0.78 µM), the inhibition at 300 µg/mL stood at 100% and the “fold change (FC) T66K” value is given as 1.864. In addition, the “FC conferred by T66K mutation” value in series [11] was 2. For the same compound, the IC50 in series [7] (setting [14]) was 0.175 ± 0.019 µg/mL (≈ 0.418 µM). The “FC in susceptibility conferred by S230R mutation” value in [12] is recorded as 3.85. Further, in series [13], the IC50 turned out to be 0.383 ± 0.04 µg/mL (≈ 0.914 µM), the inhibition at 300 µg/mL stood at 100% and the “fold change (FC) S230R” value is given as 2.166.

Consider `Cc1nnc(C(=O)NC(C)(C)c2nc(C(=O)NCc3ccc(F)cc3)c(O)c(=O)n2C)o1` [Raltegravir, raltegravir], for which, in series [10], the IC50 worked out at 0.479 ± 0.078 µg/mL (≈ 1.08 µM), the inhibition at 300 µg/mL worked out at 100% and the “fold change (FC) T66K” value is reported as 13.15. In addition, the “FC conferred by T66K mutation” value in series [11] was 9.6. In addition, the half-inhibitory concentration (IC50) in series [7] (setting [14]) worked out at 0.0364 ± 0.001 µg/mL (≈ 0.082 µM). The “FC in susceptibility conferred by S230R mutation” value in series [12] is recorded as 1.52. Further, in [13], the IC50 was found to be 0.0475 ± 0.0016 µg/mL (≈ 0.107 µM), the inhibition at 300 µg/mL was found to be 100% and the “fold change (FC) S230R” value stood at 1.305.
